Results reported in PubChem BioAssay AID1918996 (Molecular Pharmacology Branch, DTP, NCI, 2023).
Values joined by “and” are separate entries in the source; they are usually repeats but may differ in a detail not shown here. Equal values may be shown once.

System: 349418-098-R-PDC complex spheroid growth
Assay: Anticancer human tumor 349418-098-R-PDC patient-derived lung adenocarcinoma cell line growth inhibition [AhR]
Conditions: for viability, T/C: stronger effect = lower value
In short: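 Complex tumor spheroids co-cultured with HUVEC and human MSC stroma; AhR antagonists tested in combination with standard-of-care and investigational agents. Top concentration at or near clinical Cmax (else 10 microM), half-log dilutions; growth expressed as percent test/control.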

[1] = curve of first compound, second compound 0.1 µM
[2] = curve of first compound, second compound 0.316 µM
[3] = curve of first compound, second compound 1 µM
[4] = curve of first compound, second compound 3.16 µM
[5] = curve of first compound, second compound 10 µM
[6] = second compound 0.1 µM, first compound 0.0316 µM
[7] = second compound 0.1 µM, first compound 0.1 µM
[8] = second compound 0.1 µM, first compound 0.316 µM
[9] = second compound 0.1 µM, first compound 1 µM
[10] = second compound 0.1 µM, first compound 3.16 µM
[11] = second compound 0.1 µM, first compound 10 µM
[12] = second compound 0.316 µM, first compound 0.0316 µM
[13] = second compound 0.316 µM, first compound 0.1 µM
[14] = second compound 0.316 µM, first compound 0.316 µM
[15] = second compound 0.316 µM, first compound 1 µM
[16] = second compound 0.316 µM, first compound 3.16 µM
[17] = second compound 0.316 µM, first compound 10 µM
[18] = second compound 1 µM, first compound 0.0316 µM
[19] = second compound 1 µM, first compound 0.1 µM
[20] = second compound 1 µM, first compound 0.316 µM
[21] = second compound 1 µM, first compound 1 µM
[22] = second compound 1 µM, first compound 3.16 µM
[23] = second compound 1 µM, first compound 10 µM
[24] = second compound 3.16 µM, first compound 0.0316 µM
[25] = second compound 3.16 µM, first compound 0.1 µM
[26] = second compound 3.16 µM, first compound 0.316 µM
[27] = second compound 3.16 µM, first compound 1 µM
[28] = second compound 3.16 µM, first compound 3.16 µM
[29] = second compound 3.16 µM, first compound 10 µM
[30] = second compound 10 µM, first compound 0.0316 µM
[31] = second compound 10 µM, first compound 0.1 µM
[32] = second compound 10 µM, first compound 0.316 µM
[33] = second compound 10 µM, first compound 1 µM
[34] = second compound 10 µM, first compound 3.16 µM
[35] = second compound 10 µM, first compound 10 µM
[36] = second compound 0.1 µM, first compound 0.00316 µM
[37] = second compound 0.1 µM, first compound 0.01 µM
[38] = second compound 0.316 µM, first compound 0.00316 µM
[39] = second compound 0.316 µM, first compound 0.01 µM
[40] = second compound 1 µM, first compound 0.00316 µM
[41] = second compound 1 µM, first compound 0.01 µM
[42] = second compound 3.16 µM, first compound 0.00316 µM
[43] = second compound 3.16 µM, first compound 0.01 µM
[44] = second compound 10 µM, first compound 0.00316 µM
[45] = second compound 10 µM, first compound 0.01 µM
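Note: spheroids exposed to agents for seven days before luminescence viability read.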
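Throughout, for viability, T/C: spheroids also contain HUVEC endothelial cells and human MSC stroma.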

Row | Compound | IC50 [1] [nM] | IC50 [2] [nM] | IC50 [3] [nM] | IC50 [4] [nM] | IC50 [5] [nM] | viability, T/C [6] [%] | viability, T/C [7] [%] | viability, T/C [8] [%] | viability, T/C [9] [%] | viability, T/C [12] [%] | viability, T/C [13] [%] | viability, T/C [14] [%] | viability, T/C [15] [%] | viability, T/C [18] [%] | viability, T/C [19] [%] | viability, T/C [20] [%] | viability, T/C [24] [%] | viability, T/C [25] [%] | viability, T/C [30] [%] | viability, T/C [31] [%] | also measured
1 | COc1cccc2c1C(=O)c1c(O)c3c(c(O)c1C2=O)CC(O)(C(=O)CO)CC3OC1CC(N)C(O)C(C)O1 (configuration not stated) + CC(CO)NC(=O)c1cc(-c2ccc(Cl)cc2)nn(-c2cnn(C)c2)c1=O | < 31.6 | < 31.6 | < 31.6 | < 31.6 | < 31.6 | 21.8 | 13.4 | 3.76 | 0.59 | 26.6 | 13.2 | 3.63 | 0.47 | 25 | 14.7 | 3.05 | 19.6 | 14.4 | 18.5 | 12.3 | viability, T/C [10]: 2.28%; viability, T/C [11]: 5.15%; viability, T/C [16]: 3.14%; viability, T/C [17]: 5.48%; viability, T/C [21]: 0.52%; viability, T/C [22]: 3.58%; viability, T/C [23]: 5.75%; viability, T/C [26]: 2.92%; viability, T/C [27]: 0.71%; viability, T/C [28]: 2.73%; viability, T/C [29]: 5.34%; viability, T/C [32]: 1.49%; viability, T/C [33]: 1.33%; viability, T/C [34]: 3.87%; viability, T/C [35]: 6.78%
2 | O=C(c1cc(Cc2n[nH]c(=O)c3ccccc23)ccc1F)N1CCN(C(=O)C2CC2)CC1 | – | – | – | – | – | – | – | – | – | – | – | – | – | – | – | – | – | – | – | – | viability, T/C (compound 0.0316 µM): 99.3% and 78.6% and 91.4%; viability, T/C (compound 0.1 µM): 96.3% and 102% and 76.1%; viability, T/C (compound 0.316 µM): 102% and 59% and 78.5%; viability, T/C (compound 1 µM): 92.2% and 95.7% and 68.9%; viability, T/C (compound 3.16 µM): 92.4% and 52.9% and 67.8%; viability, T/C (compound 10 µM): 64.2% and 30% and 36.2%; IC50 (curve of compound): > 10000 nM and 3670 nM and 5620 nM
3 | Cn1ncnc1C1c2n[nH]c(=O)c3cc(F)cc(c23)NC1c1ccc(F)cc1 (configuration not stated) + CC(CO)NC(=O)c1cc(-c2ccc(Cl)cc2)nn(-c2cnn(C)c2)c1=O | > 100 | > 100 | > 100 | 14.3 | 4.21 | 84.9 | 87.3 | – | – | 48 | 60.1 | – | – | 51.2 | 56.8 | – | 37.6 | 45.3 | 32.4 | 39.2 | viability, T/C (second compound 0.1 µM, first compound 0.000316 µM): 81.4%; viability, T/C (second compound 0.1 µM, first compound 0.001 µM): 85.1%; viability, T/C [36]: 94%; viability, T/C [37]: 96.2%; viability, T/C (second compound 0.316 µM, first compound 0.000316 µM): 71.8%; viability, T/C (second compound 0.316 µM, first compound 0.001 µM): 84.4%; viability, T/C [38]: 60.6%; viability, T/C [39]: 76.3%; viability, T/C (second compound 1 µM, first compound 0.000316 µM): 78.1%; viability, T/C (second compound 1 µM, first compound 0.001 µM): 106%; viability, T/C [40]: 83.9%; viability, T/C [41]: 52.2%; viability, T/C (second compound 3.16 µM, first compound 0.000316 µM): 83.1%; viability, T/C (second compound 3.16 µM, first compound 0.001 µM): 68.9%; viability, T/C [42]: 55.7%; viability, T/C [43]: 61%; viability, T/C (second compound 10 µM, first compound 0.000316 µM): 39.9%; viability, T/C (second compound 10 µM, first compound 0.001 µM): 64.7%; viability, T/C [44]: 59.8%; viability, T/C [45]: 35.2%
4 | CC1(C)CCC(CN2CCN(c3ccc(C(=O)NS(=O)(=O)c4ccc(NCC5CCOCC5)c([N+](=O)[O-])c4)c(Oc4cnc5[nH]ccc5c4)c3)CC2)=C(c2ccc(Cl)cc2)C1 + Cc1cncc(-c2nc(NCCc3c[nH]c4ccccc34)c3ncn(C(C)C)c3n2)c1 | > 10000 | > 10000 | > 10000 | < 31.6 | < 31.6 | 102 | 108 | 96.2 | 92.4 | 99.3 | 99.8 | 103 | 87.7 | 104 | 98.5 | 91.3 | 22.3 | 24.5 | 3.27 | 2.85 | viability, T/C [10]: 90.2%; viability, T/C [11]: 88.4%; viability, T/C [16]: 90.8%; viability, T/C [17]: 94.1%; viability, T/C [21]: 81.4%; viability, T/C [22]: 83%; viability, T/C [23]: 86.4%; viability, T/C [26]: 23.2%; viability, T/C [27]: 28.6%; viability, T/C [28]: 27.3%; viability, T/C [29]: 26.6%; viability, T/C [32]: 2.92%; viability, T/C [33]: 3.37%; viability, T/C [34]: 3.16%; viability, T/C [35]: 3.69%
5 | CC1COCCN1c1cc(-c2ccnn2C)c2ccnc(-c3ccn[nH]3)c2n1 (configuration not stated) + Cc1cncc(-c2nc(NCCc3c[nH]c4ccccc34)c3ncn(C(C)C)c3n2)c1 | 153 | 150 | 101 | < 3.16 | < 3.16 | 99.7 | 71.6 | 13.1 | 7.48 | 91.4 | 68.5 | 15.7 | 7.2 | 81.5 | 50.1 | 13.2 | 12.4 | 7.18 | 0.7 | 0.73 | viability, T/C [36]: 105%; viability, T/C [37]: 105%; viability, T/C [38]: 90.9%; viability, T/C [39]: 92.4%; viability, T/C [40]: 74.1%; viability, T/C [41]: 81.4%; viability, T/C [21]: 8.54%; viability, T/C [42]: 14.2%; viability, T/C [43]: 15.1%; viability, T/C [26]: 6.8%; viability, T/C [27]: 5.72%; viability, T/C [44]: 0.74%; viability, T/C [45]: 0.66%; viability, T/C [32]: 0.69%; viability, T/C [33]: 1.49%
